Laboratory results as given in patent publication US4833144A, “2-Alkylsulfinyl-4(3H)-quinazolinone derivatives and pharmaceutical compositions” (Nisshin Flour Milling Co., Ltd., priority 1987, dated 1989).
Like-named read-outs stand apart in the source and are kept apart here.

Experiments:
[1] = test system: indomethacin induced ulcer; experiment: antiulcer activity: suppression of indomethacin induced ulcer in mice; format: in vivo, ddY series male mice; settings: po, read-out: Suppression rate of indomethacin induced ulcer, 100 mg/kg, p.o.
Method: The antiulcer activity of the compounds of this invention was determined by the following method. Four-week-old ddY series male mice were used as the test animals after they were fasted for 24 hours. Each test compound suspended in a 1% gum arabic solution was administerd to the stomach of each mouse at a dose of 100 mg/kg, and then, after 30 minutes, 20 mg/kg of indomethacin was administered orally. Four hours after the administration of indomethacin, the stomach of mouse was extirpated and the length of ulcers was measured. Then, the ulcer index was determined by the total sum of the scores as calculated in Table 1.

[2] = acute oral toxicity (LD50); settings: in vivo
[3] = mouse, 100 mg/kg p.o. 30 min before 20 mg/kg indomethacin, ulcer index 4 h later, vs control group

Molecule COc1ccc(-n2c([S+]([O-])Cc3nccc(OC)c3C)nc3ccc(C)cc3c2=O)cc1 (stereo not drawn) [2-[(4-methoxy-3-methylpyridin-2-yl)methylsulfinyl]-3-(4-methoxyphenyl)-6-methyl-4(3H)-quinazolinone] has an inhibition in vivo at 100 mg/kg [1, 3] of 51%.
Work on COc1cc(C[S+]([O-])c2nc3ccccc3c(=O)n2-c2ccccc2)ncc1C (stereo not drawn) [2-[(4-methoxy-5-methylpyridin-2-yl)methylsulfinyl]-3-phenyl-4(3H)-quinazolinone] yielded an inhibition in vivo at 100 mg/kg [1, 3] of 82%.
COc1cc(C[S+]([O-])c2nc3ccc(C)cc3c(=O)n2-c2ccccc2)ncc1C (stereo not drawn) [2-[(4-methoxy-5-methylpyridine-2-yl)methylsulfinyl]-6-methyl-3-phenyl-4(3H)-quinazolinone] showed an inhibition in vivo at 100 mg/kg [1, 3] of 59%.
Cc1ccnc(C[S+]([O-])c2nc3ccccc3c(=O)n2-c2ccccc2)c1 (stereo not drawn) [2-[(4-methylpyridin-2-yl)methylsulfinyl]-3-phenyl-4(3H)-quinazolinone] showed an inhibition in vivo at 100 mg/kg [1, 3] of 68%.
Molecule O=c1c2ccccc2nc([S+]([O-])Cc2ccccn2)n1-c1cccc2ccccc12 (stereo not drawn) [3-(1-naphthyl)-2-(2-pyridylmethylsulfinyl)-4(3H)-quinazolinone] has an inhibition in vivo at 100 mg/kg [1, 3] of 39%.
With O=c1c2ccccc2nc([S+]([O-])Cc2ccccn2)n1-c1ccccc1Cl (stereo not drawn) [3-(2-chlorophenyl)-2-(2-pyridylmethylsulfinyl)-4(3H)-quinazolinone] the inhibition in vivo at 100 mg/kg [1, 3] was 56%.
Work on COc1cccc(-n2c([S+]([O-])Cc3ccccn3)nc3ccccc3c2=O)c1 (stereo not drawn) [3-(3-methoxyphenyl)-2-(2-pyridylmethylsulfinyl)-4(3H)-quinazolinone] yielded an inhibition in vivo at 100 mg/kg [1, 3] of 73%.
In the case of COc1ccc(-n2c([S+]([O-])Cc3ccccn3)nc3ccccc3c2=O)cc1 (stereo not drawn) [3-(4-methoxyphenyl)-2-(2-pyridylmethylsulfinyl)-4(3H)-quinazolinone], the inhibition in vivo at 100 mg/kg [1, 3] is reported as 72%.
Cc1ccc(-n2c([S+]([O-])Cc3ccccn3)nc3ccccc3c2=O)cc1 (stereo not drawn) [3-(4-methylphenyl)-2-(2-pyridylmethylsulfinyl)-4(3H)-quinazolinone] showed an inhibition in vivo at 100 mg/kg [1, 3] of 73%.
In the case of O=c1c2ccccc2nc([S+]([O-])Cc2ccccn2)n1-c1ccccc1 (stereo not drawn) [3-Phenyl-2-(2-pyridylmethylsulfinyl)-4(3H)-quinazolinone], the inhibition in vivo at 100 mg/kg [1, 3] is reported as 83% and the LD50 [2] is reported as over 3000 mg/kg.
With O=c1c2ccccc2nc([S+]([O-])Cc2ccncc2)n1-c1ccccc1 (stereo not drawn) [3-Phenyl-2-(4-pyridylmethylsulfinyl)-4(3H)-quinazolinone] the inhibition in vivo at 100 mg/kg [1, 3] was 69%.
In the case of CC(C)Cn1c([S+]([O-])Cc2ccccn2)nc2ccccc2c1=O (stereo not drawn) [3-isobutyl-2-(2-pyridylmethylsulfinyl)-4(3H)-quinazolinone], the inhibition in vivo at 100 mg/kg [1, 3] is reported as 40%.
For O=c1c2ccccc2nc([S+]([O-])Cc2cccnc2)n1-c1ccccc1 (stereo not drawn) [3-phenyl-2-(3-pyridylmethylsulfinyl)-4(3H)-quinazolinone], the inhibition in vivo at 100 mg/kg [1, 3] was 55%.
For O=c1c2ccccc2nc([S+]([O-])Cc2ccnc3ccccc23)n1-c1ccccc1 (stereo not drawn) [3-phenyl-2-(4-quinolylmethylsulfinyl)-4(3H)-quinazolinone], the inhibition in vivo at 100 mg/kg [1, 3] was 64%.
Cc1cccc2nc([S+]([O-])Cc3ccccn3)n(-c3ccccc3)c(=O)c12 (stereo not drawn) [5-methyl-3-phenyl-2-(2-pyridylmethylsulfinyl)-4(3H)-quinazolinone] showed an inhibition in vivo at 100 mg/kg [1, 3] of 77%.
Molecule Cc1ccc2nc([S+]([O-])Cc3ccccn3)n(-c3ccccc3)c(=O)c2c1 (stereo not drawn) [6-methyl-3-phenyl-2-(2-pyridylmethylsulfinyl)-4(3H)-quinazolinone] has an inhibition in vivo at 100 mg/kg [1, 3] of 56%.
With CN/C(=N/CCSCc1nc[nH]c1C)NC#N [Cimetidine, reference compound] the inhibition in vivo at 100 mg/kg ([1]; Mus musculus, 4 h) was 40%.
